# Measurements: PubChem BioAssay (NCI)
#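 A five-concentration, 48-hour dose response in 96-well plates underlies each endpoint, interpolated linearly between surrounding concentrations. GI50 is the concentration that inhibits growth by half. At the TGI there is no net growth.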
# Experiments:
# Test in all cases: growth of human tumour cells (NCI), 48 h
# [1] = system: MOLT-4 leukemia
# [2] = system: SNB-19 CNS
# [3] = system: BT-549 breast
# [4] = system: M14 melanoma
# [5] = system: T-47D breast
# [6] = system: MALME-3M melanoma
# [7] = system: EKVX NSCLC
# [8] = system: HL-60(TB) leukemia
# [9] = system: RPMI-8226 leukemia
# [10] = system: 786-0 renal
# [11] = system: HCT-116 colon
# [12] = system: NCI-H460 lung
# [13] = system: CAKI-1 renal
# [14] = system: ACHN renal
# [15] = system: SN12C renal
# [16] = system: SF-268 CNS
# [17] = system: NCI-H226 lung
# [18] = system: MDA-MB-435
# [19] = system: OVCAR-8 ovarian
# [20] = system: UO-31 renal
# [21] = system: COLO 205 colon
# [22] = system: NCI-H23 lung
# [23] = system: MDA-MB-231 breast
# [24] = system: OVCAR-4 ovarian
# [25] = system: UACC-257 melanoma
# [26] = system: HOP-62 NSCLC
# [27] = system: DU-145 prostate
# [28] = system: SW-620 colon
# [29] = system: SR leukemia
# [30] = system: SK-OV-3 ovarian
# [31] = system: OVCAR-5 ovarian
# [32] = system: A549 NSCLC
# [33] = system: HOP-92 NSCLC
# [34] = system: UACC-62 melanoma
# [35] = system: PC-3 prostate
# [36] = system: U251 CNS
# [37] = system: IGROV1 ovarian
# [38] = system: KM12 colon
# [39] = system: HCT-15 colon
# [40] = system: CCRF-CEM leukemia
# [41] = system: NCI-H522 lung
# [42] = system: K-562 leukemia
# [43] = system: HCC-2998 colon
# [44] = system: SNB-75 CNS
# [45] = system: SK-MEL-28 melanoma
# [46] = system: LOX IMVI melanoma
# [47] = system: HS 578T breast
# [48] = system: TK-10 renal
# [49] = system: NCI/ADR-RES ovarian
# [50] = system: A498 renal
# [51] = system: SF-539 CNS
# [52] = system: RXF 393 renal
# [53] = system: SK-MEL-2 melanoma
# [54] = system: HT29 colon
# [55] = system: MCF7 breast
# [56] = system: SF-295 CNS
# [57] = system: SK-MEL-5 melanoma
smiles,measurement,setting,value
CN1CCN(Cc2ccc(NC(=O)c3cncc(C#Cc4cnc5ccc(OCC6(C)COC6)nn45)c3)cc2C(F)(F)F)CC1,GI50,[1],0.145 µM
same,TGI,[1],16.5 µM
same,GI50,[2],0.2 µM
same,TGI,[2],0.668 µM
same,GI50,[3],0.32 µM
same,TGI,[3],0.94 µM
same,GI50,[4],0.0849 µM
same,TGI,[4],0.218 µM
same,GI50,[5],0.279 µM
same,TGI,[5],1.15 µM
same,GI50,[6],0.089 µM
same,TGI,[6],0.303 µM
same,GI50,[7],0.152 µM
same,TGI,[7],0.641 µM
same,GI50,[8],0.19 µM
same,TGI,[8],0.604 µM
same,GI50,[9],0.223 µM
same,TGI,[9],1.44 µM
same,GI50,[10],0.215 µM
same,TGI,[10],0.72 µM
same,GI50,[11],0.125 µM
same,TGI,[11],0.476 µM
same,GI50,[12],0.194 µM
same,TGI,[12],0.669 µM
same,GI50,[13],0.0878 µM
same,TGI,[13],0.254 µM
same,GI50,[14],0.108 µM
same,TGI,[14],0.465 µM
same,GI50,[15],0.112 µM
same,TGI,[15],0.489 µM
same,GI50,[16],0.117 µM
same,TGI,[16],0.333 µM
same,GI50,[17],0.0985 µM
same,TGI,[17],0.975 µM
same,GI50,[18],0.142 µM
same,TGI,[18],0.535 µM
same,GI50,[19],0.157 µM
same,TGI,[19],0.547 µM
same,GI50,[20],0.13 µM
same,TGI,[20],0.436 µM
same,GI50,[21],0.111 µM
same,TGI,[21],0.236 µM
same,GI50,[22],0.134 µM
same,TGI,[22],0.462 µM
same,GI50,[23],0.0731 µM
same,TGI,[23],0.243 µM
same,GI50,[24],0.135 µM
same,TGI,[24],0.757 µM
same,GI50,[25],0.228 µM
same,TGI,[25],0.829 µM
same,GI50,[26],0.156 µM
same,TGI,[26],0.518 µM
same,GI50,[27],0.164 µM
same,TGI,[27],0.527 µM
same,GI50,[28],0.121 µM
same,TGI,[28],0.317 µM
same,GI50,[29],0.14 µM
same,TGI,[29],1.65 µM
same,GI50,[30],0.233 µM
same,TGI,[30],0.747 µM
same,GI50,[31],0.172 µM
same,TGI,[31],0.609 µM
same,GI50,[32],0.145 µM
same,TGI,[32],0.433 µM
same,GI50,[33],0.0595 µM
same,TGI,[33],0.217 µM
same,GI50,[34],0.125 µM
same,TGI,[34],0.577 µM
same,GI50,[35],0.218 µM
same,TGI,[35],0.83 µM
same,GI50,[36],0.193 µM
same,TGI,[36],0.715 µM
same,GI50,[37],0.105 µM
same,TGI,[37],0.437 µM
same,GI50,[38],0.005 µM
same,TGI,[38],0.352 µM
same,GI50,[39],0.123 µM
same,TGI,[39],0.408 µM
same,GI50,[40],0.165 µM
same,TGI,[40],15.9 µM
same,GI50,[41],0.0967 µM
same,TGI,[41],0.204 µM
same,GI50,[42],0.005 µM
same,TGI,[42],50 µM
same,GI50,[43],0.199 µM
same,TGI,[43],0.656 µM
same,GI50,[44],0.128 µM
same,TGI,[44],0.357 µM
same,GI50,[45],0.167 µM
same,TGI,[45],0.612 µM
same,GI50,[46],0.107 µM
same,TGI,[46],0.322 µM
same,GI50,[47],0.0804 µM
same,TGI,[47],0.321 µM
same,GI50,[48],0.149 µM
same,TGI,[48],0.451 µM
same,GI50,[49],0.163 µM
same,TGI,[49],0.58 µM
same,GI50,[50],0.142 µM
same,TGI,[50],0.407 µM
same,GI50,[51],0.0911 µM
same,TGI,[51],0.573 µM
same,GI50,[52],0.113 µM
same,TGI,[52],0.294 µM
same,GI50,[53],0.102 µM
same,TGI,[53],0.218 µM
same,GI50,[54],0.151 µM
same,TGI,[54],0.639 µM
same,GI50,[55],0.086 µM
same,TGI,[55],0.525 µM
same,GI50,[56],0.44 µM
same,TGI,[56],1.07 µM
same,GI50,[57],0.642 µM
same,TGI,[57],1.28 µM
